These results are taken from article PMC10791743, “Selective CK1α degraders exert antiproliferative activity against a broad range of human cancer cell lines” (Nature Communications, 2024).

The target in one data set is T1, CK1α G40N (Homo sapiens, UniProt P48729, G40N).
T1 construct: host or cells: MOLM-13, lentiviral transduction, puromycin selected
The data set is described as follows: Immunoblot of transduced MOLM-13 cells (FLAG-CK1α WT / G40N). Type of data set: cell-based. To be noted: 1 μM, 4 h. Here is the method: (§1) To evaluate the contribution of the CK1α degradation in SJ3149-mediated cytotoxicity, we utilized the degradation-resistant mutant CK1α G40N[41]. MOLM-13 cells were transduced with lentivirus to overexpress FLAG-tagged wild type CK1α or the G40N mutant, which removes the essential glycine in the CK1α degron G-loop.
Frozen pellets of ~1 million cells were lysed in 150 µl of SDS lysis buffer (60 mM Tris/HCl pH 7, 10% glycerol, 2% SDS, 5% beta-mercaptoethanol, 0.02% bromophenol blue, 0.5% protease and phosphatase inhibitor cocktail (Sigma Aldrich)). When cells were resuspended, samples were heated for 3 min at 99 °C then put on ice. Samples were then fragmented by sonication for 10 0.5-s pulses (550 Sonic Dismembrator, Fisher Scientific) and heated again at 99 °C for 2 min. 15 μl of each sample was added to the wells of a 4–20% polyacrylamide gel (Bio-Rad). A mixture of 2 μl of Precision Plus Protein Unstained Standards and 2 μl of Precision Plus Protein All Blue Standards (Bio-Rad) was used for the size marker. After electrophoresis, gels were transferred to nitrocellulose membrane using the Bio-Rad Trans-Blot Turbo system on the mixed molecular weight setting. […] Blots were imaged with the Li-Cor Odyssey CLx and analyzed using Image Studio Version 5.2. […]
A general note: Immunoblotting shows a protein as a band on a membrane.

A further data set relates to β-catenin. Description: HiBiT-β-catenin stabilization, live-cell kinetic (HEK293 cells). The format is cell-based. Here is the method:
Next, TMT-proteomics studies were performed to determine broader degradation selectivity profiles of our two lead compounds. […] As expected, increased protein levels of p53, p21, and β-catenin were detected in the treated cells. To investigate the relationship between β-catenin stabilization relative to CK1α degradation, kinetic monitoring of endogenously tagged HiBiT-β-catenin was performed in live cells and compared to our measurements of CK1α degradation kinetics. Treatment of cells with the lead compounds from each series led to dose-dependent stabilization of β-catenin levels with slower kinetics compared to the observed rapid degradation of CK1α. […]
White 96-well assay plates (Corning, Cat. # 3017) were seeded with 30,000 cells/well in growth media for CK1α-HiBiT HEK293 LgBiT stable and HiBiT-β-catenin HEK293 LgBiT stable and incubated overnight at 37 °C and 5% CO2. […] Luminescence was allowed to equilibrate for all plates for 2.5 h. […] Luminescence was read every 5 min for 24 h. At the end of all 24-h cycles, CellTiter Glo 2.0 (Promega, Cat. #G9242) was added to the plates, incubated for at least 10 min and luminescence was read using the GloMax Discover.
Relative protein level was determined based on normalization to the DMSO control and reported at Fractional RLUs. […]
Background: HiBiT is a short tag that completes a luciferase, so light tracks the accessible tagged protein.

Data set [1] has as its system MOLM-13 cells overexpressing FLAG-tagged wild type CK1α. The data set is described as follows: CK1α mutant rescue, CTG viability, FLAG-CK1α wild type MOLM-13. Type of data set: cell-based, human. How it is done: as §1
The media was changed after cells rested in the 37 °C incubator overnight. […] As described above in the Molecular Glue Library Screening section, transduced MOLM-13 cells were seeded in 384-well plates at 1250 cells per well and allowed to rest overnight. 30 nl of CK1α degraders of interest were deposited on the cells using an Echo 650 acoustic liquid handler […]. […] This was done twice for a total of six technical replicates.

Where “and” joins values, the source holds several entries; their conditions need not be identical. Identical values can stand only once.

T1 sequence (Q96SW2 whole entry partner): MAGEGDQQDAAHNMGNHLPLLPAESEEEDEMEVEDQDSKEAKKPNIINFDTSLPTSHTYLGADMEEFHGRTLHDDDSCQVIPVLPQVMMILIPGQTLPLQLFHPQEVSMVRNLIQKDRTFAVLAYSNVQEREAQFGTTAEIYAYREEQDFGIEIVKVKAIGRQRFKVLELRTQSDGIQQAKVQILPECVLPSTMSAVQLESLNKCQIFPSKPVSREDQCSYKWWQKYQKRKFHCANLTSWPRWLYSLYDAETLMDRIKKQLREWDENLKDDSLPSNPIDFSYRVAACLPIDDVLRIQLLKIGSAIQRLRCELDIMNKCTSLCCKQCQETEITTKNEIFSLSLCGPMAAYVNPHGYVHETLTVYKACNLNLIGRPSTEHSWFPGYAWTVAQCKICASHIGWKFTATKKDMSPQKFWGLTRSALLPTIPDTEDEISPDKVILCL
T1 sequence (Q16531 whole entry partner): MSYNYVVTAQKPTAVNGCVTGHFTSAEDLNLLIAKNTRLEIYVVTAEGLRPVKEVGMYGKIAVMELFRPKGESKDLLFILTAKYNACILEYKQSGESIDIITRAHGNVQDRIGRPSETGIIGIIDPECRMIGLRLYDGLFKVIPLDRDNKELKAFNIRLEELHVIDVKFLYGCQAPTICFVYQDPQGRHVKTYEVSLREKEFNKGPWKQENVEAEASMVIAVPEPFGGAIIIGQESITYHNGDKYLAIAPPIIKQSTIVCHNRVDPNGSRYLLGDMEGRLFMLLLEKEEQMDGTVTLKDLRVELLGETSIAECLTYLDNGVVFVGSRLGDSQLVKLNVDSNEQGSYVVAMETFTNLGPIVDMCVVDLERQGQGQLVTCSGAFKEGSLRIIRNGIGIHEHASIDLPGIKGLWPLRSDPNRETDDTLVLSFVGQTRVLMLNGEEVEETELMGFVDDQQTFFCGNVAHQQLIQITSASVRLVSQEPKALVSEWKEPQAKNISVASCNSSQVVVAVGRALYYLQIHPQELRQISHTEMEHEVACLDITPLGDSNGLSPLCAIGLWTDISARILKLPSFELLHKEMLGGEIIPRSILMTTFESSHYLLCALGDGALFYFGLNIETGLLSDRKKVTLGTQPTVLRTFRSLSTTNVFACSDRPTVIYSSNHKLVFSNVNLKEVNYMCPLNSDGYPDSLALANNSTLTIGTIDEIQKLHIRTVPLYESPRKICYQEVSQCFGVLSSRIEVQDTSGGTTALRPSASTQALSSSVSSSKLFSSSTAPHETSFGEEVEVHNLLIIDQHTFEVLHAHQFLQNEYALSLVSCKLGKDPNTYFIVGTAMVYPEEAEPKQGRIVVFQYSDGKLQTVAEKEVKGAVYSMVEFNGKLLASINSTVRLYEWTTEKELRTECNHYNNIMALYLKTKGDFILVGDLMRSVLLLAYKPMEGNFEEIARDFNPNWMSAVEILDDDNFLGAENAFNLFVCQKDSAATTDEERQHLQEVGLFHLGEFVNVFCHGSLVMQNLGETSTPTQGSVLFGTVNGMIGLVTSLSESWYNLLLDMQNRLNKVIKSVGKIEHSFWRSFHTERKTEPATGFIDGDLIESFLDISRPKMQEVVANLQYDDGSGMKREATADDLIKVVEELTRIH
T1 sequence (P48729 whole entry G40N): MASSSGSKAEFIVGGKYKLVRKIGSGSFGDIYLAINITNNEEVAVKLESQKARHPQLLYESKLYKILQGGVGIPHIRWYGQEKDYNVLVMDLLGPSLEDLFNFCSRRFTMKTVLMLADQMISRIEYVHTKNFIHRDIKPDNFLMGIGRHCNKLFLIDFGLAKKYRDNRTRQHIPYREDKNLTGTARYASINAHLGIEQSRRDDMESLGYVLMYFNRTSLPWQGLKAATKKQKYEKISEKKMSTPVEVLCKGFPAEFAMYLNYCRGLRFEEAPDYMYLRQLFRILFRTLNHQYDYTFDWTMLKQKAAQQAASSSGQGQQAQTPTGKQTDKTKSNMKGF

Turning to `O=C1CCC(N2Cc3cc(Nc4noc5ccccc45)ccc3C2=O)C(=O)N1` (stereo not shown) [SJ3149], the “Degradation of G40N mutant CK1α protein” value on CK1α G40N is on record as “resistance of the G40N mutant protein to SJ3149 mediated degradation”. For the same molecule, in the data set on β-catenin, the “Time to detectable increase of β-catenin” value was at most 30 min. In addition, the “cell viability percentages, CK1a” value in data set [1] (Concentration 0.000542) is 105.205% and 58.6715% and 64.466% and 67.6161% and 69.6541% and 82.1036%; in data set [1] (Concentration 0.001625), 74.2908% and 52.9731% and 67.1789% and 57.7783% and 62.7672% and 68.828%; in data set [1] (Concentration 0.004875), 36.1307% and 42.7391% and 40.1045% and 39.1839% and 40.0413% and 49.9053%; in data set [1] (Concentration 0.043872), 2.187% and 2.943% and 4.508% and 8.798% and 6.315% and 7.182%; in data set [1] (Concentration 0.131617), 3.39% and 3.498% and 5.044% and 4.581% and 3.4782% and 4.037%; in data set [1] (Concentration 0.394851) it was 2.449% and 1.756% and 2.718% and 2.322% and 1.473% and 1.9709%. Also, the “cell viability percentages, CK1a” value in data set [1] (Concentration 1.18455) was 1.709% and 1.723% and 2.012% and 1.573% and 1.103% and 1.1327%; in data set [1] (Concentration 3.55366), 1.548% and 0.8978% and 0.8701% and 0.5259% and 0.4164% and 0.8076%. Further, the “Bottom (line fit, sigmoidal 4PL) of cell viability, CK1a” value in data set [1] (FLAG-CK1a WT cells) was 1.012%. Moreover, in data set [1] (FLAG-CK1a WT cells), the “Top (line fit, sigmoidal 4PL) of cell viability, CK1a” value is given as 80.73%. In data set [1] (Homo sapiens, MOLM-13, read-out: IC50 (line fit, sigmoidal 4PL) of cell viability, CK1a), the IC50 (in general, the concentration that gives 50% inhibition) stood at 5.26 nM.
